As usually defined, the melting point is the temperature, or range, at which the solid turns liquid.

Drawing on patent publication US20050043315A1, “Aminopyrimidine compounds, processes for their preparation and pharmaceutical compositions containing them” (priority 2002, published 2005), this text covers melting point for 36 compounds.

Regarding `CC(C)n1nc(-c2c(OCC(=O)OC(C)(C)C)nc(N)nc2-c2ccccc2)ccc1=O` [Example 159, tert-butyl {[2-amino-5-(1-isopropyl-6-oxo-1,6-dihydro-3-pyridazinyl)-6-phenyl-4-pyrimidinyl]-oxy}acetate], the melting point was 160 to 162 °C. For the compound `CC(C)n1nc(-c2c(OCC(=O)c3ccccc3)nc(N)nc2-c2ccccc2)ccc1=O` [Example 161, 6-[2-Amino-4-(2-oxo-2-phenylethoxy)-6-phenyl-5-pyrimidinyl]-2-isopropyl-3(2H)-pyridazinone], the melting point is 182 to 183 °C.

On to `CC(C)CC(=O)Nc1ncc(-c2ccc(=O)n(C(C)C)n2)c(-c2ccccc2)n1` [Example 162, N-[5-(1-isopropyl-6-oxo-1,6-dihydro-3-pyridazinyl)-4-phenyl-2-pyrimidinyl]-3-methylbutanamide], for which the melting point is 161 °C. For the compound `CC(C)C(=O)Nc1ncc(-c2ccc(=O)n(C(C)C)n2)c(-c2ccccc2)n1` [Example 163, N-[5-(1-isopropyl-6-oxo-1,6-dihydro-3-pyridazinyl)-4-phenyl-2-pyrimidinyl]-2-methylpropanamide], the melting point lay in the range of 145 to 147 °C. On to `CCCC(=O)Nc1ncc(-c2ccc(=O)n(C(C)C)n2)c(-c2ccccc2)n1` [Example 164, N-[5-(1-isopropyl-6-oxo-1,6-dihydro-3-pyridazinyl)-4-phenyl-2-pyrimidinyl]butanamide], for which the melting point lay within 148 to 150 °C.

For `CC(C)n1nc(-c2cnc(NC(=O)C3CCCCC3)nc2-c2ccccc2)ccc1=O` [Example 165, N-[5-(1-isopropyl-6-oxo-1,6-dihydro-3-pyridazinyl)-4-phenyl-2-pyrimidinyl]cyclohexanecarboxamide], the melting point lay within 195 to 198 °C.

With `COCC(=O)Nc1ncc(-c2ccc(=O)n(C(C)C)n2)c(-c2ccccc2)n1` [Example 166, N-[5-(1-isopropyl-6-oxo-1,6-dihydro-3-pyridazinyl)-4-phenyl-2-pyrimidinyl]-2-methoxyacetamide], the melting point fell in the range of 94 to 97 °C. In the case of `CC(C)n1nc(-c2cnc(NC(=O)C3CC3)nc2-c2ccccc2)ccc1=O` [Example 167, N-[5-(1-isopropyl-6-oxo-1,6-dihydro-3-pyridazinyl)-4-phenyl-2-pyrimidinyl]cyclopropanecarboxamide] it was 143 to 147 °C; in that of `COC(=O)Nc1ncc(-c2ccc(=O)n(C(C)C)n2)c(-c2ccccc2)n1` [Example 168, Methyl 5-(1-isopropyl-6-oxo-1,6-dihydro-3-pyridazinyl)-4-phenyl-2-pyrimidinylcarbamate], 197 to 200 °C. In the case of `CC(C)n1nc(-c2cnc(NC(=O)c3ccccc3)nc2-c2ccccc2)ccc1=O` [Example 169, N-[5-(1-isopropyl-6-oxo-1,6-dihydro-3-pyridazinyl)-4-phenyl-2-pyrimidinyl]benzamide] it was 116 to 120 °C; in that of `CC(C)n1nc(-c2cnc(NC(=O)c3ccc(Cl)cc3)nc2-c2ccccc2)ccc1=O` [Example 171, 4-Chloro-N-[5-(1-isopropyl-6-oxo-1,6-dihydro-3-pyridazinyl)-4-phenyl-2-pyrimidinyl]benzamide], 100 °C. Take `COc1ccc(C(=O)Nc2ncc(-c3ccc(=O)n(C(C)C)n3)c(-c3ccccc3)n2)cc1` [Example 172, N-[5-(1-isopropyl-6-oxo-1,6-dihydro-3-pyridazinyl)-4-phenyl-2-pyrimidinyl]-4-methoxybenzamide]: the melting point is 171 to 174 °C. In the case of `Cc1ccc(C(=O)Nc2ncc(-c3ccc(=O)n(C(C)C)n3)c(-c3ccccc3)n2)cc1` [Example 173, N-[5-(1-isopropyl-6-oxo-1,6-dihydro-3-pyridazinyl)-4-phenyl-2-pyrimidinyl]-4-methylbenzamide], the melting point was found to be 116 °C. In the case of `CC(C)n1nc(-c2cnc(NC(=O)c3ccc(C(F)(F)F)cc3)nc2-c2ccccc2)ccc1=O` [Example 174, N-[5-(1-isopropyl-6-oxo-1,6-dihydro-3-pyridazinyl)-4-phenyl-2-pyrimidinyl]-4-(trifluoromethyl)benzamide], the melting point lay within 160 to 163 °C. Take `CC(C)n1nc(-c2cnc(NC(=O)c3cccnc3)nc2-c2ccccc2)ccc1=O` [Example 175, N-[5-(1-isopropyl-6-oxo-1,6-dihydro-3-pyridazinyl)-4-phenyl-2-pyrimidinyl)nicotinamide]: the melting point was in the range of 163 to 167 °C. In the case of `CC(C)n1nc(-c2cnc(NC(=O)C(C)(C)C)nc2-c2ccccc2)ccc1=O` [Example 176, N-[5-(1-isopropyl-6-oxo-1,6-dihydro-3-pyridazinyl)-4-phenyl-2-pyrimidinyl]-2,2-dimethylpropanamide], the melting point fell in the range of 138 to 141 °C. Consider `CC(C)n1nc(-c2cnc(NC(=O)OCC(Cl)(Cl)Cl)nc2-c2ccccc2)ccc1=O` [Example 177, 2,2,2-trichloroethyl 5-(1-isopropyl-6-oxo-1,6-dihydro-3-pyridazinyl)-4-phenyl-2-pyrimidinylcarbamate], for which the melting point lay within 158 to 162 °C. The compound `CC(C)n1nc(-c2cnc(N(C(=O)c3ccccc3)C(=O)c3ccccc3)nc2-c2ccccc2)ccc1=O` [Example 178, N-benzoyl-N-[5-(1-isopropyl-6-oxo-1,6-dihydro-3-pyridazinyl)-4-phenyl-2-pyrimidinyl]benzamide] showed a melting point of 121 to 125 °C. Turning to `CC(C)n1nc(-c2cnc(N(C(=O)c3ccc(F)cc3)C(=O)c3ccc(F)cc3)nc2-c2ccccc2)ccc1=O` [Example 179, 4-Fluoro-N-(4-fluorobenzoyl)-N-[5-(1-isopropyl-6-oxo-1,6-dihydro-3-pyridazinyl)-4-phenyl-2-pyrimidinyl]benzamide], the melting point lay within 148 to 151 °C. In the case of `CC(C)n1nc(-c2cnc(N(C(=O)c3ccc(Cl)cc3)C(=O)c3ccc(Cl)cc3)nc2-c2ccccc2)ccc1=O` [Example 180, 4-Chloro-N-(4-chlorobenzoyl)-N-[5-(1-isopropyl-6-oxo-1,6-dihydro-3-pyridazinyl)-4-phenyl-2-pyrimidinyl]benzamide] it was 110 °C.

`CC(C)n1nc(-c2cnc(N(C(=O)c3ccc(C(F)(F)F)cc3)C(=O)c3ccc(C(F)(F)F)cc3)nc2-c2ccccc2)ccc1=O` [Example 183, N-[5-(1-isopropyl-6-oxo-1,6-dihydro-3-pyridazinyl)-4-phenyl-2-pyrimidinyl]-4-(trifluoromethyl)-N-[4-(trifluoromethyl)benzoyl]benzamide] returned a melting point of 159 °C. With `CCOc1ccc(-c2nc(N)ncc2-c2ccc(=O)n(C(C)C)n2)cc1` [Example 188, 6-[2-amino-4-(4-ethoxyphenyl)-5-pyrimidinyl]-2-isopropyl-3(2H)-pyridazinone], the melting point is 204 °C.

In turn, `CCOc1ccccc1-c1nc(N)ncc1-c1ccc(=O)n(C(C)C)n1` [Example 189, 6-[2-Amino-4-(2-ethoxyphenyl)-5-pyrimidinyl]-2-isopropyl-3(2H)-pyridazinone] registered a melting point of 185 °C. `CCOc1cccc(-c2nc(N)ncc2-c2ccc(=O)n(C(C)C)n2)c1` [Example 190, 6-[2-Amino-4-(3-ethoxyphenyl)-5-pyrimidinyl]-2-isopropyl-3(2H)-pyridazinone] came in with a melting point of 142 °C. In turn, `CCCOc1ccc(-c2nc(N)ncc2-c2ccc(=O)n(C(C)C)n2)cc1` [Example 191, 6-[2-Amino-4-(4-propoxyphenyl)-5-pyrimidinyl]-2-isopropyl-3(2H)-pyridazinone] registered a melting point of 175 °C. `CCCOc1ccccc1-c1nc(N)ncc1-c1ccc(=O)n(C(C)C)n1` [Example 192, 6-[2-Amino-4-(2-propoxyphenyl)-5-pyrimidinyl]-2-isopropyl-3(2H)-pyridazinone] displayed a melting point of 145 °C. The compound `CCCOc1cccc(-c2nc(N)ncc2-c2ccc(=O)n(C(C)C)n2)c1` [Example 193, 6-[2-Amino-4-(3-propoxyphenyl)-5-pyrimidinyl]-2-isopropyl-3(2H)-pyridazinone] displayed a melting point of 122 °C. `CC(C)Oc1ccc(-c2nc(N)ncc2-c2ccc(=O)n(C(C)C)n2)cc1` [Example 194, 6-[2-Amino-4-(4-isopropoxyphenyl)-5-pyrimidinyl]-2-isopropyl-3(2H)-pyridazinone] gave a melting point of 164 °C. In the case of `CC(C)Oc1cccc(-c2nc(N)ncc2-c2ccc(=O)n(C(C)C)n2)c1` [Example 196, 6-[2-Amino-4-(3-isopropoxyphenyl)-5-pyrimidinyl]-2-isopropyl-3(2H)-pyridazinone] it was 143 °C. In the case of `CCCCOc1ccc(-c2nc(N)ncc2-c2ccc(=O)n(C(C)C)n2)cc1` [Example 197, 6-[2-Amino-4-(4-butoxyphenyl)-5-pyrimidinyl]-2-isopropyl-3(2H)-pyridazinone] it was 143 °C.

Compound `CCCCOc1ccccc1-c1nc(N)ncc1-c1ccc(=O)n(C(C)C)n1` [Example 198, 6-[2-Amino-4-(2-butoxyphenyl)-5-pyrimidinyl]-2-isopropyl-3(2H)-pyridazinone] came in with a melting point of 149 °C. As for `CCCCOc1cccc(-c2nc(N)ncc2-c2ccc(=O)n(C(C)C)n2)c1` [Example 199, 6-[2-Amino-4-(3-butoxyphenyl)-5-pyrimidinyl]-2-isopropyl-3(2H)-pyridazinone], the melting point was 130 °C.

Compound `CC(C)COc1ccc(-c2nc(N)ncc2-c2ccc(=O)n(C(C)C)n2)cc1` [Example 200, 6-[2-Amino-4-(4-isobutoxyphenyl)-5-pyrimidinyl]-2-isopropyl-3(2H)-pyridazinone] showed a melting point of 166 °C. Consider `CC(C)COc1ccccc1-c1nc(N)ncc1-c1ccc(=O)n(C(C)C)n1` [Example 201, 6-[2-Amino-4-(2-isobutoxyphenyl)-5-pyrimidinyl]-2-isopropyl-3(2H)-pyridazinone], for which the melting point is 189 °C.

On to `CC(C)COc1cccc(-c2nc(N)ncc2-c2ccc(=O)n(C(C)C)n2)c1` [Example 202, 6-[2-Amino-4-(3-isobutoxyphenyl)-5-pyrimidinyl]-2-isopropyl-3(2H)-pyridazinone], for which the melting point was found to be 137 °C. `CC(C)CCOc1ccccc1-c1nc(N)ncc1-c1ccc(=O)n(C(C)C)n1` [Example 204, 6-{2-Amino-4-(2-(isopentyloxy)phenyl]-5-pyrimidinyl}-2-isopropyl-3(2H)-pyridazinone] registered a melting point of 155 °C.
